Tests used:
bedstraw = assay: Test B pre/postemergence bedstraw; assay type: in vivo, Galium aparine
Method in brief: (§1)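 Response is a visual 0-to-10 score relative to untreated plants, where 0 means no effect and 10 means complete control, taken twelve to sixteen days after application. Treatments went onto soil at planting and onto foliage of 1- to 4-leaf plants, using a surfactant-containing non-phytotoxic solvent.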

blackgrass = assay: Test B pre/postemergence blackgrass; assay type: in vivo, Alopecurus myosuroides
Method in brief: as §1

surinam grass = assay: Test B pre/postemergence surinam grass; assay type: in vivo, Brachiaria decumbens
Method in brief: as §1

corn = assay: Test B pre/postemergence corn; assay type: in vivo, Zea mays
Method in brief: as §1

crabgrass = assay: Test B pre/postemergence crabgrass; assay type: in vivo, Digitaria sanguinalis
Method in brief: as §1

giant foxtail = assay: Test B pre/postemergence giant foxtail; assay type: in vivo, Setaria faberii
Method in brief: as §1

morningglory = assay: Test B pre/postemergence morningglory; assay type: in vivo, Ipomoea hederacea
Method in brief: as §1

rape = assay: Test B pre/postemergence rape; assay type: in vivo, Brassica napus
Method in brief: as §1

soybean = assay: Test B pre/postemergence soybean; assay type: in vivo, Glycine max
Method in brief: as §1

velvetleaf = assay: Test B pre/postemergence velvetleaf; assay type: in vivo, Abutilon theophrasti
Method in brief: as §1

wheat = assay: Test B pre/postemergence wheat; assay type: in vivo, Triticum aestivum
Method in brief: as §1

wild oat = assay: Test B pre/postemergence wild oat; assay type: in vivo, Avena fatua
Method in brief: as §1

purple nutsedge = assay: Test B pre/postemergence purple nutsedge; assay type: in vivo, Cyperus rotundus
Method in brief: as §1

rice = assay: Test B flood test rice; assay type: in vivo, Oryza sativa
Method in brief: (§2)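 Each value is a visual injury score relative to controls, with 10 meaning complete control and 0 no effect. Evaluation took place twelve to sixteen days after the 2-leaf-stage plants were treated and kept in the greenhouse.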

smallflower flatsedge = assay: Test B flood test smallflower flatsedge; assay type: in vivo, Cyperus difformis
Method in brief: as §2

duck salad = assay: Test B flood test duck salad; assay type: in vivo, Heteranthera limosa
Method in brief: as §2

[1] = Postemergence, Rate 62 g/ha, scale 0 to 10, 0 is no effect, 10 is complete control
[2] = Postemergence, Rate 125 g/ha, scale of 0 to 10 where 0 is no effect and 10 is complete control
[3] = Postemergence, Rate 1000 g/ha, scale 0 to 10 (0 no effect, 10 complete control)
[4] = Preemergence, Rate 62 g/ha, scale 0 to 10 (0 no effect, 10 complete control)
[5] = Preemergence, Rate 125 g/ha, 0 is no effect, 10 is complete control
[6] = Preemergence, Rate 250 g/ha, scale 0 to 10, 0 is no effect, 10 is complete control
[7] = Preemergence, Rate 500 g/ha, scale 0 to 10 (0 no effect, 10 complete control)
[8] = Rate 250 g/ha, Postemergence, scale 0 to 10, 0 is no effect, 10 is complete control
[9] = Rate 1000 g/ha, Preemergence, scale 0 to 10 (0 no effect, 10 complete control)
[10] = Rate 62 g/ha, Postemergence, scale of 0 to 10 where 0 is no effect and 10 is complete control
[11] = Rate 500 g/ha, Postemergence, scale 0 to 10
[12] = Postemergence (flood test species), Rate 125 g/ha, scale of 0 to 10 where 0 is no effect and 10 is complete control
[13] = Rate 62 g/ha, Postemergence section, flood test species, scale of 0 to 10 where 0 is no effect and 10 is complete control
[14] = Rate 250 g/ha, Postemergence (flood test), scale 0 to 10, 0 is no effect, 10 is complete control
[15] = Rate 500 g/ha, listed under Postemergence (flood test species), scale 0 to 10

SMILES: C=CCn1c(=O)on(C(=O)N(c2ccc(F)cc2F)C2CC2)c1=O [Compound 127]
- Bedstraw plant response rating (bedstraw; [1]): 0
- Bedstraw plant response rating (bedstraw; [2]): 0
- Bedstraw plant response rating (bedstraw; [3]): 0
- Bedstraw plant response rating (bedstraw; [4]): 0
- Bedstraw plant response rating (0 to 10 scale) (bedstraw; [5]): 0
- Bedstraw plant response rating (bedstraw; [6]): 0
- Bedstraw plant response rating (bedstraw; [7]): 0
- Plant response rating, Bedstraw (bedstraw; [8]): 0
- Bedstraw plant response rating (bedstraw; Rate 500 g/ha, Postemergence, scale 0 to 10, 0 no effect, 10 complete control): 0
- Plant response rating, Bedstraw (bedstraw; [9]): 0
- Blackgrass plant response rating (blackgrass; [2]): 0
- Blackgrass plant response rating (blackgrass; [3]): 0
- Blackgrass plant response rating (blackgrass; [4]): 0
- Blackgrass plant response rating (0 to 10 scale) (blackgrass; [5]): 0
- Blackgrass plant response rating (blackgrass; [6]): 0
- Blackgrass plant response rating (blackgrass; [7]): 0
- Blackgrass plant response rating (blackgrass; [10]): 0
- Plant response rating, Blackgrass (blackgrass; [8]): 0
- Blackgrass plant response rating (blackgrass; [11]): 0
- Plant response rating, Blackgrass (blackgrass; [9]): 0
- B. signalgrass plant response rating (surinam grass; [1]): 0
- B. signalgrass plant response rating (surinam grass; [2]): 0
- B. signalgrass plant response rating (surinam grass; [3]): 0
- B. signalgrass plant response rating (surinam grass; [4]): 0
- B. signalgrass plant response rating (0 to 10 scale) (surinam grass; [5]): 0
- B. signalgrass plant response rating (surinam grass; [6]): 0
- B. signalgrass plant response rating (surinam grass; [7]): 0
- Plant response rating, B. signalgrass (surinam grass; [8]): 0
- B. signalgrass plant response rating (surinam grass; Rate 500 g/ha, Postemergence, scale of 0 to 10 where 0 is no effect and 10 is complete control): 0
- Plant response rating, B. signalgrass (surinam grass; [9]): 0
- Corn plant response rating (corn; [2]): 0
- Corn plant response rating (corn; [3]): 0
- Corn plant response rating (corn; [4]): 0
- Corn plant response rating (0 to 10 scale) (corn; [5]): 0
- Corn plant response rating (corn; [6]): 0
- Corn plant response rating (corn; [7]): 0
- Corn plant response rating (corn; [10]): 0
- Plant response rating, Corn (corn; [8]): 0
- Corn plant response rating (corn; [11]): 0
- Plant response rating, Corn (corn; [9]): 0
- Crabgrass plant response rating (crabgrass; [2]): 0
- Crabgrass plant response rating (crabgrass; [3]): 0
- Crabgrass plant response rating (crabgrass; [4]): 0
- Crabgrass plant response rating (0 to 10 scale) (crabgrass; [5]): 0
- Crabgrass plant response rating (crabgrass; [6]): 0
- Crabgrass plant response rating (crabgrass; [7]): 0
- Crabgrass plant response rating (crabgrass; [10]): 0
- Plant response rating, Crabgrass (crabgrass; [8]): 0
- Crabgrass plant response rating (crabgrass; [11]): 0
- Plant response rating, Crabgrass (crabgrass; [9]): 7
- Giant foxtail plant response rating (giant foxtail; [2]): 0
- Giant foxtail plant response rating (giant foxtail; [3]): 0
- Giant foxtail plant response rating (giant foxtail; [4]): 0
- Giant foxtail plant response rating (0 to 10 scale) (giant foxtail; [5]): 0
- Giant foxtail plant response rating (giant foxtail; [6]): 2
- Giant foxtail plant response rating (giant foxtail; [7]): 4
- Giant foxtail plant response rating (giant foxtail; [10]): 0
- Plant response rating, Giant foxtail (giant foxtail; [8]): 0
- Giant foxtail plant response rating (giant foxtail; [11]): 0
- Plant response rating, Giant foxtail (giant foxtail; [9]): 9
- Morningglory plant response rating (morningglory; [2]): 0
- Morningglory plant response rating (morningglory; [3]): 0
- Morningglory plant response rating (morningglory; [4]): 0
- Morningglory plant response rating (0 to 10 scale) (morningglory; [5]): 0
- Morningglory plant response rating (morningglory; [6]): 0
- Morningglory plant response rating (morningglory; [7]): 0
- Morningglory plant response rating (morningglory; [10]): 0
- Plant response rating, Morningglory (morningglory; [8]): 0
- Morningglory plant response rating (morningglory; [11]): 0
- Plant response rating, Morningglory (morningglory; [9]): 0
- Rape plant response rating (rape; [2]): 0
- Rape plant response rating (rape; [3]): 0
- Rape plant response rating (rape; [4]): 0
- Rape plant response rating (0 to 10 scale) (rape; [5]): 0
- Rape plant response rating (rape; [6]): 0
- Rape plant response rating (rape; [7]): 0
- Rape plant response rating (rape; [10]): 0
- Plant response rating, Rape (rape; [8]): 0
- Rape plant response rating (rape; [11]): 0
- Plant response rating, Rape (rape; [9]): 0
- Soybean plant response rating (soybean; [2]): 0
- Soybean plant response rating (soybean; [3]): 0
- Soybean plant response rating (soybean; [4]): 0
- Soybean plant response rating (0 to 10 scale) (soybean; [5]): 0
- Soybean plant response rating (soybean; [6]): 0
- Soybean plant response rating (soybean; [7]): 0
- Soybean plant response rating (soybean; [10]): 0
- Plant response rating, Soybean (soybean; [8]): 0
- Soybean plant response rating (soybean; [11]): 0
- Plant response rating, Soybean (soybean; [9]): 0
- Velvetleaf plant response rating (velvetleaf; [2]): 0
- Velvetleaf plant response rating (velvetleaf; [3]): 0
- Velvetleaf plant response rating (velvetleaf; [4]): 0
- Velvetleaf plant response rating (0 to 10 scale) (velvetleaf; [5]): 0
- Velvetleaf plant response rating (velvetleaf; [6]): 0
- Velvetleaf plant response rating (velvetleaf; [7]): 0
- Velvetleaf plant response rating (velvetleaf; [10]): 0
- Plant response rating, Velvetleaf (velvetleaf; [8]): 0
- Velvetleaf plant response rating (velvetleaf; [11]): 0
- Plant response rating, Velvetleaf (velvetleaf; [9]): 0
- Wheat plant response rating (wheat; [2]): 0
- Wheat plant response rating (wheat; [3]): 0
- Wheat plant response rating (wheat; [4]): 0
- Wheat plant response rating (0 to 10 scale) (wheat; [5]): 0
- Wheat plant response rating (wheat; [6]): 0
- Wheat plant response rating (wheat; [7]): 0
- Wheat plant response rating (wheat; [10]): 0
- Plant response rating, Wheat (wheat; [8]): 0
- Wheat plant response rating (wheat; [11]): 0
- Plant response rating, Wheat (wheat; [9]): 2
- Wild oats plant response rating (wild oat; [2]): 0
- Wild oats plant response rating (wild oat; [3]): 0
- Wild oats plant response rating (wild oat; [4]): 0
- Wild oats plant response rating (0 to 10 scale) (wild oat; [5]): 0
- Wild oats plant response rating (wild oat; [6]): 0
- Wild oats plant response rating (wild oat; [7]): 0
- Wild oats plant response rating (wild oat; [10]): 0
- Plant response rating, Wild oats (wild oat; [8]): 0
- Wild oats plant response rating (wild oat; [11]): 0
- Plant response rating, Wild oats (wild oat; [9]): 8
- Nutsedge plant response rating (purple nutsedge; [2]): 0
- Nutsedge plant response rating (purple nutsedge; [3]): 0
- Nutsedge plant response rating (purple nutsedge; [4]): 0
- Nutsedge plant response rating (0 to 10 scale) (purple nutsedge; [5]): 0
- Nutsedge plant response rating (purple nutsedge; [6]): 0
- Nutsedge plant response rating (purple nutsedge; [7]): 0
- Nutsedge plant response rating (purple nutsedge; [10]): 0
- Plant response rating, Nutsedge (purple nutsedge; [8]): 0
- Nutsedge plant response rating (purple nutsedge; [11]): 0
- Rice plant response rating (rice; [12]): 0
- Rice plant response rating (rice; [13]): 0
- Plant response rating, Rice (rice; [14]): 0
- Rice plant response rating (rice; [15]): 0
- S. Flatsedge plant response rating (smallflower flatsedge; [12]): 0
- S. Flatsedge plant response rating (smallflower flatsedge; [13]): 0
- Plant response rating, S. Flatsedge (smallflower flatsedge; [14]): 0
- S. Flatsedge plant response rating (smallflower flatsedge; [15]): 0
- Ducksalad plant response rating (duck salad; [12]): 0
- Ducksalad plant response rating (duck salad; [13]): 0
- Plant response rating, Ducksalad (duck salad; [14]): 0
- Ducksalad plant response rating (duck salad; [15]): 0
